Reference: US6914045B2, “Glycopeptide antibiotics” (Wyeth Holdings Corporation, priority 2001, dated 2005)
In brackets after ≈: the same amount, converted by molar mass.

How the values were obtained:
Assay in all cases: in vitro antibacterial evaluation, MIC by broth dilution
Assay type in all cases: cell-based
Enterococcus sp. = conditions: broth dilution, 18 hours at 35° C.
Method in brief: (§1)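 Broth dilution per NCCLS standard M7-A2 in Muller-Hinton II […], with an inoculum of 5×10^5 CFU/mL and antibiotic spanning 64-0.06 μg/mL. The MIC is the lowest concentration that inhibits growth of the organism.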

Staphylococcus sp. = conditions: broth dilution, 18 hours at 35° C.; for MIC Staphylococcus aureus (GC 1131): strain GC 1131; for MIC Staphylococcus aureus (ATCC 29213): strain ATCC 29213; for MIC Staphylococcus aureus (GC 3051): strain GC 3051; for MIC Staphylococcus aureus (GC 3053): strain GC 3053; for MIC Staphylococcus aureus (GC 4541): strain GC 4541; for MIC Staphylococcus aureus (GC 4542): strain GC 4542; for MIC Staphylococcus aureus-SMITH (GC 4543): strain GC 4543; for MIC Staphylococcus aureus (GC 4544): strain GC 4544; for MIC Staphylococcus aureus (GC 4545): strain GC 4545; for MIC Staphylococcus haemolyticus (GC 4546): strain GC 4546; for MIC Coagulase Negative Staphylococcus (GC 4547): strain GC 4547; for MIC Coagulase Negative Staphylococcus (GC 4548): strain GC 4548; for MIC Coagulase Negative Staphylococcus (GC 4549): strain GC 4549; for MIC Coagulase Negative Staphylococcus (GC 4551): strain GC 4551
Method in brief: as §1

Streptococcus sp. = conditions: broth dilution, 18 hours at 35° C.
Method in brief: as §1

Escherichia coli = conditions: 18 hours at 35° C.
[1] = inoculum 5×10^5 CFU/mL, strain ATCC 29212
[2] = inoculum 5×10^5 CFU/mL, strain GC 2242
[3] = inoculum 5×10^5 CFU/mL, strain GC 2243
[4] = inoculum 5×10^5 CFU/mL, strain GC 2691
[5] = inoculum 5×10^5 CFU/mL, strain GC 3059
[6] = inoculum 5×10^5 CFU/mL, strain GC 4552
[7] = inoculum 5×10^5 CFU/mL, strain GC 4553
[8] = inoculum 5×10^5 CFU/mL, strain GC 4554
[9] = inoculum 5×10^5 CFU/mL, strain GC 4556
[10] = inoculum 5×10^5 CFU/mL, strain GC 4557
[11] = inoculum 5×10^5 CFU/mL, strain GC 4558
[12] = inoculum 5×10^5 CFU/mL, strain GC 6189
[13] = inoculum 5×10^5 CFU/mL, strain ATCC 6301
[14] = inoculum 5×10^5 CFU/mL, strain GC 1894
[15] = inoculum 5×10^5 CFU/mL, strain GC 4563
[16] = inoculum 5×10^5 CFU/mL, strain GC 4564
[17] = inoculum 5×10^5 CFU/mL, strain GC 4565

## N=C1NCC(C(O)C2NC(=O)C(Cc3ccc(OC4OC(CO)C(OC5OC6COC(c7ccccc7)OC6C(O)C5O)C(O)C4O)cc3)NC(=O)C(CC3CCCCC3)NC(=O)CNC(=O)C(CO)NC(=O)C(C(O)C3CNC(=N)N3C3OC(CO)C(O)C(O)C3O)NC2=O)N1 (centres unmarked) [Example 199]
Enterococcus sp.
  MIC Enterococcus avium (GC 4558): 2 µg/mL (≈ 1.45 µM)
  MIC Enterococcus faecalis (ATCC 29212): 4 µg/mL (≈ 2.91 µM)
  MIC Enterococcus faecalis (GC 2242): 2 µg/mL (≈ 1.45 µM)
  MIC Enterococcus faecalis (GC 2691): 4 µg/mL (≈ 2.91 µM)
  MIC Enterococcus faecalis (GC 3059): 4 µg/mL (≈ 2.91 µM)
  MIC Enterococcus faecalis (GC 4552): 4 µg/mL (≈ 2.91 µM)
  MIC Enterococcus faecalis (GC 4553): 4 µg/mL (≈ 2.91 µM)
  MIC Enterococcus faecalis (GC 4554): 4 µg/mL (≈ 2.91 µM)
  MIC Enterococcus faecalis (GC 6189): 2 µg/mL (≈ 1.45 µM)
  MIC Enterococcus faecium (GC 2243): 4 µg/mL (≈ 2.91 µM)
  MIC Enterococcus faecium (GC 4556): 4 µg/mL (≈ 2.91 µM)
  MIC Enterococcus faecium (GC 4557): 2 µg/mL (≈ 1.45 µM)
Enterococcus sp.; [1]
  MIC Enterococcus faecalis (ATCC 29212): 4 µg/mL (≈ 2.91 µM)
Enterococcus sp.; [2]
  MIC Enterococcus faecalis (GC 2242): 2 µg/mL (≈ 1.45 µM)
Enterococcus sp.; [3]
  MIC Enterococcus faecium (GC 2243): 4 µg/mL (≈ 2.91 µM)
Enterococcus sp.; [4]
  MIC Enterococcus faecalis (GC 2691): 4 µg/mL (≈ 2.91 µM)
Enterococcus sp.; [5]
  MIC Enterococcus faecalis (GC 3059): 4 µg/mL (≈ 2.91 µM)
Enterococcus sp.; [6]
  MIC Enterococcus faecalis (GC 4552): 4 µg/mL (≈ 2.91 µM)
Enterococcus sp.; [7]
  MIC Enterococcus faecalis (GC 4553): 4 µg/mL (≈ 2.91 µM)
Enterococcus sp.; [8]
  MIC Enterococcus faecalis (GC 4554): 4 µg/mL (≈ 2.91 µM)
Enterococcus sp.; [9]
  MIC Enterococcus faecium (GC 4556): 4 µg/mL (≈ 2.91 µM)
Enterococcus sp.; [10]
  MIC Enterococcus faecium (GC 4557): 2 µg/mL (≈ 1.45 µM)
Enterococcus sp.; [11]
  MIC Enterococcus avium (GC 4558): 2 µg/mL (≈ 1.45 µM)
Enterococcus sp.; [12]
  MIC Enterococcus faecalis (GC 6189): 2 µg/mL (≈ 1.45 µM)
Staphylococcus sp.; inoculum 5×10^5 CFU/mL
  MIC Staphylococcus aureus (GC 1131): 2 µg/mL (≈ 1.45 µM)
Staphylococcus sp.
  MIC Staphylococcus aureus (ATCC 29213): 2 µg/mL (≈ 1.45 µM)
  MIC Staphylococcus aureus (GC 1131): 2 µg/mL (≈ 1.45 µM)
  MIC Staphylococcus aureus (GC 3051): 1 µg/mL (≈ 0.727 µM)
  MIC Staphylococcus aureus (GC 3053): 2 µg/mL (≈ 1.45 µM)
  MIC Staphylococcus aureus (GC 4541): 2 µg/mL (≈ 1.45 µM)
  MIC Staphylococcus aureus (GC 4542): 1 µg/mL (≈ 0.727 µM)
  MIC Staphylococcus aureus-SMITH (GC 4543): 1 µg/mL (≈ 0.727 µM)
  MIC Staphylococcus aureus (GC 4544): 2 µg/mL (≈ 1.45 µM)
  MIC Staphylococcus aureus (GC 4545): 1 µg/mL (≈ 0.727 µM)
  MIC Staphylococcus haemolyticus (GC 4546): 1 µg/mL (≈ 0.727 µM)
  MIC Coagulase Negative Staphylococcus (GC 4547): 2 µg/mL (≈ 1.45 µM)
  MIC Coagulase Negative Staphylococcus (GC 4548): 0.5 µg/mL (≈ 0.364 µM)
  MIC Coagulase Negative Staphylococcus (GC 4549): 0.5 µg/mL (≈ 0.364 µM)
  MIC Coagulase Negative Staphylococcus (GC 4551): 1 µg/mL (≈ 0.727 µM)
Streptococcus sp.
  MIC Streptococcus agalactiae (GC 4564): <0.12 µg/mL
  MIC Streptococcus pneumoniae (ATCC 6301): <0.12 µg/mL
  MIC Streptococcus pneumoniae (GC 1894): <0.12 µg/mL
  MIC Streptococcus pneumoniae (GC 4565): <0.12 µg/mL
  MIC Streptococcus pyogenes (GC 4563): <0.12 µg/mL
Streptococcus sp.; [13]
  MIC Streptococcus pneumoniae (ATCC 6301): <0.12 µg/mL
Streptococcus sp.; [14]
  MIC Streptococcus pneumoniae (GC 1894): <0.12 µg/mL
Streptococcus sp.; [15]
  MIC Streptococcus pyogenes (GC 4563): <0.12 µg/mL
Streptococcus sp.; [16]
  MIC Streptococcus agalactiae (GC 4564): <0.12 µg/mL
Streptococcus sp.; [17]
  MIC Streptococcus pneumoniae (GC 4565): <0.12 µg/mL
Escherichia coli
  MIC Escherichia coli (ATCC 25922): 64 µg/mL (≈ 46.5 µM)
  MIC Escherichia coli (GC 4559): 32 µg/mL (≈ 23.3 µM)
  MIC Escherichia coli (GC 4560): 1 µg/mL (≈ 0.727 µM)

## N=C1NCC(C(O)C2NC(=O)C(Cc3ccc(OC4OC(CO)C(OC5OC6COC(Cc7ccccc7)OC6C(O)C5O)C(O)C4O)cc3)NC(=O)C(CC3CCCCC3)NC(=O)CNC(=O)C(CO)NC(=O)C(C(O)C3CNC(=N)N3C3OC(CO)C(O)C(O)C3O)NC2=O)N1 (centres unmarked) [Example 200]
Enterococcus sp.
  MIC Enterococcus avium (GC 4558): 4 µg/mL (≈ 2.88 µM)
  MIC Enterococcus faecalis (ATCC 29212): 4 µg/mL (≈ 2.88 µM)
  MIC Enterococcus faecalis (GC 2242): 0.5 µg/mL (≈ 0.36 µM)
  MIC Enterococcus faecalis (GC 2691): 4 µg/mL (≈ 2.88 µM)
  MIC Enterococcus faecalis (GC 3059): 2 µg/mL (≈ 1.44 µM)
  MIC Enterococcus faecalis (GC 4552): 2 µg/mL (≈ 1.44 µM)
  MIC Enterococcus faecalis (GC 4553): 4 µg/mL (≈ 2.88 µM)
  MIC Enterococcus faecalis (GC 4554): 4 µg/mL (≈ 2.88 µM)
  MIC Enterococcus faecalis (GC 6189): 2 µg/mL (≈ 1.44 µM)
  MIC Enterococcus faecium (GC 2243): 4 µg/mL (≈ 2.88 µM)
  MIC Enterococcus faecium (GC 4556): 4 µg/mL (≈ 2.88 µM)
  MIC Enterococcus faecium (GC 4557): 2 µg/mL (≈ 1.44 µM)
Enterococcus sp.; [1]
  MIC Enterococcus faecalis (ATCC 29212): 4 µg/mL (≈ 2.88 µM)
Enterococcus sp.; [2]
  MIC Enterococcus faecalis (GC 2242): 0.5 µg/mL (≈ 0.36 µM)
Enterococcus sp.; [3]
  MIC Enterococcus faecium (GC 2243): 4 µg/mL (≈ 2.88 µM)
Enterococcus sp.; [4]
  MIC Enterococcus faecalis (GC 2691): 4 µg/mL (≈ 2.88 µM)
Enterococcus sp.; [5]
  MIC Enterococcus faecalis (GC 3059): 2 µg/mL (≈ 1.44 µM)
Enterococcus sp.; [6]
  MIC Enterococcus faecalis (GC 4552): 2 µg/mL (≈ 1.44 µM)
Enterococcus sp.; [7]
  MIC Enterococcus faecalis (GC 4553): 4 µg/mL (≈ 2.88 µM)
Enterococcus sp.; [8]
  MIC Enterococcus faecalis (GC 4554): 4 µg/mL (≈ 2.88 µM)
Enterococcus sp.; [9]
  MIC Enterococcus faecium (GC 4556): 4 µg/mL (≈ 2.88 µM)
Enterococcus sp.; [10]
  MIC Enterococcus faecium (GC 4557): 2 µg/mL (≈ 1.44 µM)
Enterococcus sp.; [11]
  MIC Enterococcus avium (GC 4558): 4 µg/mL (≈ 2.88 µM)
Enterococcus sp.; [12]
  MIC Enterococcus faecalis (GC 6189): 2 µg/mL (≈ 1.44 µM)
Staphylococcus sp.; inoculum 5×10^5 CFU/mL
  MIC Staphylococcus aureus (GC 1131): 2 µg/mL (≈ 1.44 µM)
Staphylococcus sp.
  MIC Staphylococcus aureus (ATCC 29213): 1 µg/mL (≈ 0.72 µM)
  MIC Staphylococcus aureus (GC 1131): 2 µg/mL (≈ 1.44 µM)
  MIC Staphylococcus aureus (GC 3051): 1 µg/mL (≈ 0.72 µM)
  MIC Staphylococcus aureus (GC 3053): 2 µg/mL (≈ 1.44 µM)
  MIC Staphylococcus aureus (GC 4541): 1 µg/mL (≈ 0.72 µM)
  MIC Staphylococcus aureus (GC 4542): 1 µg/mL (≈ 0.72 µM)
  MIC Staphylococcus aureus-SMITH (GC 4543): 1 µg/mL (≈ 0.72 µM)
  MIC Staphylococcus aureus (GC 4544): 2 µg/mL (≈ 1.44 µM)
  MIC Staphylococcus aureus (GC 4545): 1 µg/mL (≈ 0.72 µM)
  MIC Staphylococcus haemolyticus (GC 4546): 1 µg/mL (≈ 0.72 µM)
  MIC Coagulase Negative Staphylococcus (GC 4547): 2 µg/mL (≈ 1.44 µM)
  MIC Coagulase Negative Staphylococcus (GC 4548): 1 µg/mL (≈ 0.72 µM)
  MIC Coagulase Negative Staphylococcus (GC 4549): 1 µg/mL (≈ 0.72 µM)
  MIC Coagulase Negative Staphylococcus (GC 4551): 2 µg/mL (≈ 1.44 µM)
Streptococcus sp.
  MIC Streptococcus agalactiae (GC 4564): 0.12 µg/mL (≈ 0.0864 µM)
  MIC Streptococcus pneumoniae (ATCC 6301): <0.06 µg/mL
  MIC Streptococcus pneumoniae (GC 1894): <0.06 µg/mL
  MIC Streptococcus pneumoniae (GC 4565): <0.06 µg/mL
  MIC Streptococcus pyogenes (GC 4563): <0.06 µg/mL
Streptococcus sp.; [13]
  MIC Streptococcus pneumoniae (ATCC 6301): <0.06 µg/mL
Streptococcus sp.; [14]
  MIC Streptococcus pneumoniae (GC 1894): <0.06 µg/mL
Streptococcus sp.; [15]
  MIC Streptococcus pyogenes (GC 4563): <0.06 µg/mL
Streptococcus sp.; [16]
  MIC Streptococcus agalactiae (GC 4564): 0.12 µg/mL (≈ 0.0864 µM)
Streptococcus sp.; [17]
  MIC Streptococcus pneumoniae (GC 4565): <0.06 µg/mL
Escherichia coli
  MIC Escherichia coli (ATCC 25922): 32 µg/mL (≈ 23 µM)
  MIC Escherichia coli (GC 4559): 32 µg/mL (≈ 23 µM)
  MIC Escherichia coli (GC 4560): 1 µg/mL (≈ 0.72 µM)
